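Dose response: 5 concentrations. Exposure: 48 h. Format: 96-well plates. Endpoint: linear interpolation; highest concentration if not reached. Abbreviation: GI50, concentration required for 50% inhibition of growth.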 Calls of active or inactive are those of the source. Cut-off read from the data, not from the text of the source: active = GI50 up to about 1.1 µM and inactive = higher.
Assays:
Experiment in all cases: NCI tumour cell line growth inhibition, 48 h
[1] = test system: 786-0
[2] = test system: ACHN
[3] = test system: CAKI-1
[4] = test system: CCRF-CEM
[5] = test system: EKVX
[6] = test system: HCT-15
[7] = test system: MOLT-4
[8] = test system: NCI-H226
[9] = test system: NCI-H23
[10] = test system: NCI-H522
[11] = test system: OVCAR-3
[12] = test system: RXF 393
[13] = test system: SF-295
[14] = test system: SF-539
[15] = test system: SK-MEL-5
[16] = test system: TK-10
[17] = test system: UACC-257
[18] = test system: UACC-62
[19] = test system: UO-31

SMILES	GI50 [1]	GI50 [2]	GI50 [3]	GI50 [4]	GI50 [5]	GI50 [6]	GI50 [7]	GI50 [8]	GI50 [9]	GI50 [10]	GI50 [11]	GI50 [12]	GI50 [13]	GI50 [14]	GI50 [15]	GI50 [16]	GI50 [17]	GI50 [18]	GI50 [19]
C/C(=N\NC(N)=O)c1sc(-c2nc(C)c(/C(C)=N/NC(N)=O)s2)nc1C	> 100 µM (inactive)	> 100 µM (inactive)	> 100 µM (inactive)	90.4 µM (inactive)	21.5 µM (inactive)	21.9 µM	> 100 µM (inactive)	> 100 µM (inactive)	> 100 µM (inactive)	70.5 µM (inactive)	> 100 µM (inactive)	> 100 µM (inactive)	> 100 µM (inactive)	> 100 µM (inactive)	> 100 µM (inactive)	> 100 µM (inactive)	> 100 µM (inactive)	> 100 µM (inactive)	> 100 µM (inactive)
O=C(O)CCC1(Br)CCCCC(Br)C1=O (stereo not drawn)	> 100 µM (inactive)	> 100 µM (inactive)	> 100 µM (inactive)	95.3 µM (inactive)	> 100 µM (inactive)	> 100 µM	> 100 µM (inactive)	> 100 µM (inactive)	> 100 µM (inactive)	> 100 µM (inactive)	> 100 µM (inactive)	85.9 µM (inactive)	> 100 µM (inactive)	> 100 µM (inactive)	> 100 µM (inactive)	> 100 µM (inactive)	> 100 µM (inactive)	> 100 µM (inactive)	> 10 µM (inactive)
C[C@]12Cc3conc3C(O)=C1CC[C@@H]1C2CC[C@@]2(C)C1CC[C@@H]2O (stereo partly drawn)	16.1 µM (inactive)	23.3 µM (inactive)	8.24 µM (inactive)	7.62 µM (inactive)	17.5 µM (inactive)	5.65 µM	6.68 µM (inactive)	18 µM (inactive)	18.1 µM (inactive)	2.95 µM (inactive)	6.22 µM (inactive)	17.4 µM (inactive)	18 µM (inactive)	15.8 µM (inactive)	10.5 µM (inactive)	24.3 µM (inactive)	21.3 µM (inactive)	4.99 µM (inactive)	15.3 µM (inactive)
CNC(=O)N(C)C(=O)c1ccccc1C(=O)N(C)C(=O)NC	> 10 µM (inactive)	> 10 µM (inactive)	> 10 µM (inactive)	> 10 µM (inactive)	> 10 µM (inactive)	> 10 µM	> 10 µM (inactive)	> 10 µM (inactive)	> 10 µM (inactive)	> 10 µM (inactive)	> 10 µM (inactive)	> 10 µM (inactive)	> 10 µM (inactive)	> 10 µM (inactive)	> 10 µM (inactive)	> 10 µM (inactive)	> 10 µM (inactive)	> 10 µM (inactive)	> 10 µM (inactive)
N/N=C(/Cc1nc2ccc(C(=O)c3ccccc3)cc2nc1O)C(=O)Nc1ccc([N+](=O)[O-])cc1[N+](=O)[O-]	71.9 µM (inactive)	> 10 µM (inactive)	> 100 µM (inactive)	> 10 µM (inactive)	> 100 µM (inactive)	> 10 µM	> 10 µM (inactive)	> 10 µM (inactive)	> 10 µM (inactive)	> 10 µM (inactive)	> 10 µM (inactive)	> 100 µM (inactive)	> 10 µM (inactive)	> 100 µM (inactive)	86.7 µM (inactive)	> 100 µM (inactive)	> 100 µM (inactive)	49 µM (inactive)	68.2 µM (inactive)
CC(=O)O[C@]1(C)CCC2C(C)C(=O)OC2C2C(C)[C@@H](O)CC21 (stereo partly drawn)	31.4 µM (inactive)	29.3 µM (inactive)	47.2 µM (inactive)	23.8 µM (inactive)	67.5 µM (inactive)	18.1 µM		31.4 µM (inactive)	36.6 µM (inactive)	13.1 µM (inactive)	12.9 µM (inactive)	32.3 µM (inactive)	72.3 µM (inactive)	39.5 µM (inactive)	32.1 µM (inactive)	42.6 µM (inactive)	> 100 µM (inactive)	33.9 µM (inactive)	48.9 µM (inactive)

Source: ChEMBL document CHEMBL1201862, “PubChem BioAssay data set” (2004)
